In brackets after ≈: the same amount, converted by molar mass. Read-outs that look alike come from different tables or passages of the source.
Tests used:
[1] = test system: MBL-producing isolates (Enterobacterales); test: MIC, broth microdilution; assay type: cell-based; settings: Enterobacterales with metallo-carbapenemases (74), cefiderocol 73 isolates
[2] = test system: MEM-nonsusceptible Enterobacterales with serine-carbapenemases; test: MIC, broth microdilution; assay type: cell-based; settings: MEM-nonsusceptible Enterobacterales with serine-carbapenemases (58)
[3] = test system: 207 Enterobacterales including carbapenem-resistant isolates; test: MIC, broth microdilution; assay type: cell-based
[4] = test system: Metallo-carbapenemase-producing Enterobacterales (11); test: MIC and MBC testing; assay type: cell-based; settings: 11 metallo-carbapenemase-producing Enterobacterales; fixed BLI concentration (μg/mL) in label
[5] = test system: MEM-nonsusceptible Enterobacterales; test: MIC, broth microdilution; assay type: cell-based; settings: MEM-nonsusceptible Enterobacterales (127), cefiderocol 126 isolates
[6] = test system: serine-carbapenemase-producing isolates (Enterobacterales); test: MIC, broth microdilution; assay type: cell-based; settings: Enterobacterales with serine-carbapenemases (80)
[7] = test system: MEM-nonsusceptible Enterobacterales with metallo-carbapenemases; test: MIC, broth microdilution; assay type: cell-based; settings: MEM-nonsusceptible Enterobacterales with metallo-carbapenemases (55), cefiderocol 54 isolates
[8] = test system: Carbapenemase-producing A. baumannii (4); test: MIC and MBC testing; assay type: cell-based, Acinetobacter baumannii; settings: 4 carbapenemase-producing A. baumannii; fixed BLI concentration (μg/mL) in label; text: MBC/MIC ratios
[9] = test system: 96 P. aeruginosa; test: MIC, broth microdilution; assay type: cell-based, Pseudomonas aeruginosa; settings: Pseudomonas aeruginosa (96)
[10] = test system: Serine-carbapenemase-producing Enterobacterales (6); test: MIC and MBC testing; assay type: cell-based; settings: 6 serine-carbapenemase-producing Enterobacterales; fixed BLI concentration (μg/mL) in label
[11] = test system: MEM-, imipenem/relebactam-, and ceftolozane/tazobactam-nonsusceptible P. aeruginosa; test: MIC, broth microdilution; assay type: cell-based, Pseudomonas aeruginosa; settings: for CLSI MIC interpretation I (intermediate) / CLSI MIC interpretation R (resistant) / CLSI MIC interpretation S (susceptible): CLSI breakpoints, marked c: breakpoints for β-lactam alone; for MIC50 / MIC90: Pseudomonas aeruginosa, fixed concentration (μg/mL) in label; for MIC50: read-out: MIC50; for MIC90: read-out: MIC90
[12] = test system: 55 isolates of A. baumannii; test: MIC, broth microdilution; assay type: cell-based, Acinetobacter baumannii; settings: Acinetobacter baumannii (55)
[13] = CLSI breakpoints, marked c: breakpoints for β-lactam alone, tigecycline: FDA breakpoints
[14] = fixed concentration (μg/mL) in label, read-out: MIC50
[15] = fixed concentration (μg/mL) in label, read-out: MIC90
[16] = All Enterobacterales (207), cefiderocol 205 isolates, CLSI breakpoints, marked c: breakpoints for β-lactam alone, tigecycline: FDA breakpoints
[17] = CLSI breakpoints, marked c: breakpoints for β-lactam alone
[18] = Ceftolozane/tazobactam-nonsusceptible Pseudomonas aeruginosa (45)
[19] = Imipenem/relebactam-nonsusceptible Pseudomonas aeruginosa (43)
[20] = MEM-nonsusceptible Pseudomonas aeruginosa (76)

CC(C)(O/N=C(\C(=O)N[C@@H]1C(=O)N2C(C(=O)[O-])=C(C[n+]3ccccc3)CS[C@H]12)c1csc(N)n1)C(=O)O [CAZ, ceftazidime]
CLSI MIC interpretation I (intermediate) [1, 13]: 0%
CLSI MIC interpretation R (resistant) [1, 13]: 98.6%
CLSI MIC interpretation S (susceptible) [1, 13]: 1.4%
MIC50 [1, 14]: > 32 µg/mL
MIC90 [1, 15]: > 32 µg/mL
CLSI MIC interpretation I (intermediate) [2, 13]: 1.7%
CLSI MIC interpretation R (resistant) [2, 13]: 82.8%
CLSI MIC interpretation S (susceptible) [2, 13]: 15.5%
MIC50 [2, 14]: > 32 µg/mL
MIC90 [2, 15]: > 32 µg/mL
CLSI MIC interpretation I (intermediate) [3, 16]: 2.4%
CLSI MIC interpretation R (resistant) [3, 16]: 82.1%
CLSI MIC interpretation S (susceptible) [3, 16]: 15.5%
MIC50 ([3]; read-out: MIC50): > 32 µg/mL
MIC90 ([3]; read-out: MIC90): > 32 µg/mL
MIC/MBC range [4]: ≥1
CLSI MIC interpretation I (intermediate) [5, 13]: 3.1%
CLSI MIC interpretation R (resistant) [5, 13]: 87.4%
CLSI MIC interpretation S (susceptible) [5, 13]: 9.4%
MIC50 [5, 14]: > 32 µg/mL
MIC90 [5, 15]: > 32 µg/mL
CLSI MIC interpretation I (intermediate) [6, 13]: 2.5%
CLSI MIC interpretation R (resistant) [6, 13]: 73.8%
CLSI MIC interpretation S (susceptible) [6, 13]: 23.8%
MIC50 [6, 14]: > 32 µg/mL
MIC90 [6, 15]: > 32 µg/mL
CLSI MIC interpretation I (intermediate) [7, 13]: 0%
CLSI MIC interpretation R (resistant) [7, 13]: 98.2%
CLSI MIC interpretation S (susceptible) [7, 13]: 1.8%
MIC50 [7, 14]: > 32 µg/mL
MIC90 [7, 15]: > 32 µg/mL
MBC/MIC ratio range [8]: 1–2
CLSI MIC interpretation I (intermediate) [9, 17]: 6.3%
CLSI MIC interpretation R (resistant) [9, 17]: 56.3%
CLSI MIC interpretation S (susceptible) [9, 17]: 37.5%
MIC50 [9, 14]: 32 µg/mL (≈ 58.5 µM)
MIC90 [9, 15]: > 32 µg/mL
MIC/MBC range [10]: 1–256
CLSI MIC interpretation I (intermediate) [11, 18]: 4.4%
CLSI MIC interpretation R (resistant) [11, 18]: 93.3%
CLSI MIC interpretation S (susceptible) [11, 18]: 2.2%
CLSI MIC interpretation I (intermediate) [11, 19]: 7%
CLSI MIC interpretation R (resistant) [11, 19]: 83.7%
CLSI MIC interpretation S (susceptible) [11, 19]: 9.3%
CLSI MIC interpretation I (intermediate) [11, 20]: 6.6%
CLSI MIC interpretation R (resistant) [11, 20]: 68.4%
CLSI MIC interpretation S (susceptible) [11, 20]: 25%
MIC50 [11, 18]: > 32 µg/mL
MIC90 [11, 18]: > 32 µg/mL
MIC50 [11, 19]: > 32 µg/mL
MIC90 [11, 19]: > 32 µg/mL
MIC50 [11, 20]: 32 µg/mL (≈ 58.5 µM)
MIC90 [11, 20]: > 32 µg/mL
CLSI MIC interpretation I (intermediate) [12, 17]: 1.8%
CLSI MIC interpretation R (resistant) [12, 17]: 94.5%
CLSI MIC interpretation S (susceptible) [12, 17]: 3.6%
MIC50 [12, 14]: > 32 µg/mL
MIC90 [12, 15]: > 32 µg/mL
